How the values were obtained:
Format in all cases: cell-based
[1] = molecular target: T1, Ba/F3 KIF5B-RET cells (Homo sapiens, UniProt P07949); experiment: Cytotoxicity assay (CellTiter-Glo), Ba/F3 KIF5B-RET; settings: CellTiter-Glo, 72 hrs; read-out: Ba/F3 KIF5B-RET IC50
T1 construct: Ba/F3 KIF5B-RET IC50 (nM); other: CellTiter-Glo, 72 hrs; fused on or other part: P33176 (Kinesin-1 heavy chain)
Description: (§1) Inhibitory effects of example compounds on the activity of Ba/F3 parental generation, Ba/F3 KIF5B-RET, Ba/F3 KIF5B-RET^V804M, Ba/F3 KIF5B-RET^V804L, Ba/F3 KIF5B-RET^G810R, Ba/F3 FLT3-ITD, Ba/F3 FLT3-ITD^D835Y, Ba/F3 FLT3-ITD^F691L cells were determined.
(§2) Materials and reagents: fetal bovine serum FBS (GIBCO, Cat #10099141), CellTiter-Glo® Luminescent Cell Viability Assay kit (Promega, Cat #G7572), 96-well black-wall clear flat-bottom plate (Corning®, Cat #3603).
(§3) 1. Cells in the logarithmic growth phase were harvested and counted with a […]. Cell viability was detected by a trypan blue exclusion method, ensuring that cell viability was 90% or more; 2. Cell concentration was adjusted to about 3000 cells/well; 90 μl of cell suspension was added to each well of the 96-well plate; 3. The cells in the 96-well plate were incubated overnight under the condition of 37° C., 5% CO2, and 95% humidity.
(§4) 1. A series of compound solutions were formulated by 3.16-fold serial dilution starting from a concentration of 10 μM, resulting in 9 concentrations. 10 μL of the compound solutions were added in each well of the 96-well plate seeded with cells in triplicate for each compound concentration; 2. The cells in the 96-well plate added with compounds were further incubated under the condition of 37° C., 5% CO2, and 95% humidity for 72 hrs, and then CTG analysis was carried out.
(§5) 1. CTG reagent was thawed, and the cell plate was equilibrated at room temperature for 30 minutes; 2. An equal volume […] of CTG solution was added to each well; 3. The cell plate was shaken on an orbital shaker for 5 minutes to lyse the cells; 4. The cell plate was placed at RT for 20 minutes to stabilize the luminescence signal; 5. Luminescence value was read.
(§6) Data were Analyzed by GraphPad Prism 5.0 Software, and Fitted by Nonlinear S-Curve Regression to obtain a dose-response curve, from which IC50 values were calculated.
(§7) Cell survival rate (%)=(luminescence value of drug to be tested−luminescence value of culture medium control)/(luminescence value of cell control−luminescence value of culture medium control)×100%.

[2] = test system: Ba/F3 KIF5B-RET cells; experiment: as above; settings: ratio of Ba/F3 parental IC50 to Ba/F3 KIF5B-RET IC50
Description: as §1, §2, §3, §4, §5, §6, §7

[3] = molecular target: T2, Ba/F3 KIF5B-RET^V804M cells (Homo sapiens, UniProt P07949, V804M, cells depend on it); experiment: Cytotoxicity assay (CellTiter-Glo), Ba/F3 KIF5B-RET V804M; settings: CellTiter-Glo, 72 hrs; read-out: Ba/F3 KIF5B-RET^V804M IC50
T2 construct: Ba/F3 KIF5B-RET^V804M IC50 (nM); other: CellTiter-Glo, 72 hrs; fused on or other part: P33176 (Kinesin-1 heavy chain)
T2 sequence (P07949 whole entry V804M, the tested form may be a part): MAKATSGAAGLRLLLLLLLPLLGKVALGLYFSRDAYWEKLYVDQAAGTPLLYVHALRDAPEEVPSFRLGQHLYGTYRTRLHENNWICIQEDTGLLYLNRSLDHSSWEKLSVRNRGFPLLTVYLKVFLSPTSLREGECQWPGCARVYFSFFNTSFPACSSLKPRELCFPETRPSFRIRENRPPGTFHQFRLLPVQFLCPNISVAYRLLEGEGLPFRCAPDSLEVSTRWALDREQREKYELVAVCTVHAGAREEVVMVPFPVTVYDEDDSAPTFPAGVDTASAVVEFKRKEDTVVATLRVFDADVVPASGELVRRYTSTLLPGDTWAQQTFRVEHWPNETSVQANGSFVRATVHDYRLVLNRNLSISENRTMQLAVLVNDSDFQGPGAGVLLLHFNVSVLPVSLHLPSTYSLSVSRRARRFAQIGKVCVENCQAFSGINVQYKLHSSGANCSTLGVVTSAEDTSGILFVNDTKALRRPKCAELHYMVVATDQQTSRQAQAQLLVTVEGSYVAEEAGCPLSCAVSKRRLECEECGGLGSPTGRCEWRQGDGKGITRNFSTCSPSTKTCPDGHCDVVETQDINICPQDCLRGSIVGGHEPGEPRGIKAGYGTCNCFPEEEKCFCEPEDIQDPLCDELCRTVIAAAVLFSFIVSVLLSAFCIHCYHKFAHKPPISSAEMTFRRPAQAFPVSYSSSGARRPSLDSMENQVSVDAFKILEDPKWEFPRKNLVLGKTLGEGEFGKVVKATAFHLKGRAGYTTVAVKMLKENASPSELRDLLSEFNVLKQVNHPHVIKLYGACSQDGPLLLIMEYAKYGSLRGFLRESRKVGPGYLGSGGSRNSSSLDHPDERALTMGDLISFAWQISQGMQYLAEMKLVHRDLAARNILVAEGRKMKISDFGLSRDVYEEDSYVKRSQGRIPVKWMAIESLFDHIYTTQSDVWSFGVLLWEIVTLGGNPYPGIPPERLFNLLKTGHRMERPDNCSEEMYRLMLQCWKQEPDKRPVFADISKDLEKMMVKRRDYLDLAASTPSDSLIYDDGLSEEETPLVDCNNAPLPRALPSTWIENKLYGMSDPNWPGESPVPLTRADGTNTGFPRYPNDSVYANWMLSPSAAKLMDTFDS
Description: as §1, §2, §3, §4, §5, §6, §7

[4] = test system: Ba/F3 KIF5B-RET^V804M cells; experiment: as above; settings: ratio of Ba/F3 parental IC50 to Ba/F3 KIF5B-RET^V804M IC50
Description: as §1, §2, §3, §4, §5, §6, §7

[5] = molecular target: T3, Ba/F3 FLT3-ITD^F691L cells (Homo sapiens, UniProt P36888, F691L, cells depend on it, form not given); experiment: Cytotoxicity assay (CellTiter-Glo), Ba/F3 FLT3-ITD F691L; settings: CellTiter-Glo, 72 hrs; read-out: Ba/F3 FLT3-ITD^F691L IC50
T3 construct: Ba/F3 FLT3-ITD^F691L IC50 (nM); other: CellTiter-Glo, 72 hrs
T3 sequence (P36888 1-993 F691L): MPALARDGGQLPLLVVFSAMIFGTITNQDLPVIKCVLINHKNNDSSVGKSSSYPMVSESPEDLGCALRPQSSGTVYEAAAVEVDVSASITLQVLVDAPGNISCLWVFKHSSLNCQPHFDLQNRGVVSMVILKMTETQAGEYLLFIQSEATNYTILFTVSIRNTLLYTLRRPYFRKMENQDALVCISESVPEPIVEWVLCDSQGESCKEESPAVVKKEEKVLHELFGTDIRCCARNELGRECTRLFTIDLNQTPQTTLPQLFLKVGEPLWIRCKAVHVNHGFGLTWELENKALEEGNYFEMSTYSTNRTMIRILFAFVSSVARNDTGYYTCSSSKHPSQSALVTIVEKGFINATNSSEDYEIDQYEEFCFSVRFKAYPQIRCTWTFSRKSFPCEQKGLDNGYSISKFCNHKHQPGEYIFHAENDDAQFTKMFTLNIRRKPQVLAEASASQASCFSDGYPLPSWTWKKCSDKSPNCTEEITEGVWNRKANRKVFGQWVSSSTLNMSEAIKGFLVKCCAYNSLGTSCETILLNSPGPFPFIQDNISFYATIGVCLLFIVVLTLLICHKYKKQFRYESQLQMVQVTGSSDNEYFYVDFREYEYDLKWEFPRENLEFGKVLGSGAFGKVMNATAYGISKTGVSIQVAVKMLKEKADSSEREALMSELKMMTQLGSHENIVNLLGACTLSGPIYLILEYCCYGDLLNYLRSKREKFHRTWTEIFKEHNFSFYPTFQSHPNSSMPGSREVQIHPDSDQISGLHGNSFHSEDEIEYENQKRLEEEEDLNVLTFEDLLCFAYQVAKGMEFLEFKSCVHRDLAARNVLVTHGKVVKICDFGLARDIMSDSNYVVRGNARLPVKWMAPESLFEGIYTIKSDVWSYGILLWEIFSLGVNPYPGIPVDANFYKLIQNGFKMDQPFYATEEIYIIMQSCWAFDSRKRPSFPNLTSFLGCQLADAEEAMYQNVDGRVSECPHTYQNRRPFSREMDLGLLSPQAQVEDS
Procedure, shortened: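 Growth inhibition in engineered Ba/F3 cells measured after 72 hrs compound exposure by CTG luminescence; IC50 from fitted dose-response curves.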

T1 sequence (P07949 whole entry, change not shown, the tested form may be a part): as the sequence (P07949 whole entry V804M, the tested form may be a part) above, with M804V counted along it

**Q.** What does the source list for `CC(C)n1cc(-c2ccc(CC(=O)Nc3cc(C(C)(C)C(F)(F)F)on3)cc2)c2c(N)ncnc21` [Compound T-3, 2-(4-(4-amino-7-isopropyl-7H-pyrrolo[2,3-d]pyrimidin-5-yl)phenyl)-N-(5-(1,1,1-trifluoro-2-methylprop-2-yl)isoxazol-3-yl)acetamide]?
**A.** GI50 [1]: 580 pM; Ba/F3 KIF5B-RET Selectivity on parental generation [2]: 1249.0; GI50 [3]: 3210 pM; Ba/F3 KIF5B-RET^V804M Selectivity on parental generation [4]: 225.7; GI50 [5]: 970 pM
